From publication PMC8760490, “Discovery of novel furanylbenzamide inhibitors that target oncogenic tyrosine phosphatase SHP2 in leukemia cells” (The Journal of Biological Chemistry, 2021)
Entries after “also recorded” stand apart in the source; their conditions may differ.

Legend:
SHP2cat = target: T1, SHP2cat (Homo sapiens, UniProt Q06124); test: Jump-dilution inhibition assay; format: biochemical; conditions: 10× preincubation 10 min, 10× jump dilution
T1 construct: the SHP2 catalytic domain (SHP2cat; residues 248–527); made in house
T1 sequence (Q06124 248-527): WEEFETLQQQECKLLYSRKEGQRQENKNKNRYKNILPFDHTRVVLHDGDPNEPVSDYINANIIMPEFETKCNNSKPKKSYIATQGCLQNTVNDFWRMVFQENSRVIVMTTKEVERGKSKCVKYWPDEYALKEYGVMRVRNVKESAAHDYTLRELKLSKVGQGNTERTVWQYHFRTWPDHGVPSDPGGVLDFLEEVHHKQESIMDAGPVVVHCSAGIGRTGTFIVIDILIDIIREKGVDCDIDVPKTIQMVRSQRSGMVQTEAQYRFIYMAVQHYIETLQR
Procedure: PTPs contain a highly nucleophilic cysteine that is essential for catalytic activity but is susceptible to oxidation and covalent modifications, which abrogate its nucleophilic function and phosphatase activity ([26]). Because the methylenebenzothiophenone moiety of our inhibitors could potentially act as a Michael acceptor and thus covalently bind to the catalytic cysteine, we tested whether the observed inhibition of SHP2 was dependent on the preincubation time of inhibitor and enzyme. An irreversible covalent inhibitor may show time-dependent inhibition, with increased potency at longer incubation times. […] To test for time-dependent inhibition, SBI-2130 at ten different concentrations was preincubated with SHP2-E76K for 1, 5, 10, 20, or 60 min, before the DiFMUP substrate was added to the reaction mixture and initial rates were recorded (Fig. 3C). […]
SBI-2130 was tested for reversibility of inhibition in a jump-dilution experiment using SHP2cat. […] The enzyme reaction was started by the addition of 5 μl of DiFMUP working solution (100 μM in 50 mM Bis–Tris, pH 6.0, 50 mM NaCl, 0.5 mM EDTA, and 0.01% Tween-20), and fluorescence intensity was measured in kinetic mode (every minute for 10 min) using a Tecan Spark Multimode Microplate Reader as described previously. […] The initial rates were determined from the linear progression curves of the SHP2cat reaction. […]

[1] = tested on: patient-derived AML cells; test: Viability of patient-derived AML cells; format: cell-based, human; conditions: 10 μM; 2, 4 or 6 days in culture
Excerpt: Because SHP2 activity is critical for ERK activation, we used phospho-ERK1/2 (p-ERK1/2) as a more direct readout of SHP2 inhibitor efficacy. […] This p-ERK rebound in MOLM-13 cells treated with RMC-4550 is reminiscent of previously reported data from human hepatoma Hep3B cells treated with SHP099 ([34]). We also tested the effects of SBI-4668 or RMC-4550 on two patient-derived AML samples (Fig. 4F).
Patient-derived AML cells were obtained from Carol Burian and Dr James Mason (Scripps MD Anderson Center) under approved Institutional Review Board protocol 13-6180. […] Final peripheral blood mononuclear cells were resuspended in Bambanker serum-free freezing medium (Wako Pure Chemical Industries, Ltd) and stored frozen before cell viability was assessed as described later.
Viability of AML and esophageal carcinoma cells was assessed using the ATP-depletion assay CellTiter-Glo (Promega). Cells were harvested at 1 × 10^6/ml to 2 × 10^6 cells/ml with cell numbers determined by trypan blue using the Countess Cell counter (Thermo Scientific) and resuspended in culture media. […] Luminescence was read on a Tecan Spark Multimode Microplate Reader, and data were analyzed using GraphPad Prism software.

Nc1ccc(NC(=O)c2cc(-c3ccc(/C=C4\Sc5ccccc5C4=O)o3)ccc2O)cc1 [SBI-2130, (Z)-N-(4-Aminophenyl)-2-hydroxy-5-(5-((3-oxobenzo[b]thiophen-2(3H)-ylidene)methyl)furan-2-yl)benzamide]
reversibility: IC50 curves jump dilution vs regular dose–response (SHP2cat): reversible inhibitor; also recorded: practically identical

O=C(Nc1ccccc1)c1cc(-c2ccc(/C=C3\Sc4ccccc4C3=O)o2)ccc1O [SBI-4668, (Z)-2-Hydroxy-5-(5-((3-oxobenzo[b]thiophen-2(3H)-ylidene)methyl)furan-2-yl)-N-phenylbenzamide]
growth of two patient-derived AML samples [1]: inhibited the growth of both AML patient samples
